Reference: patent US11033572B2, “Molecular adjuvants for enhanced cytosolic delivery of active agents” (Universiteit Gent, priority 2017, dated 2021)

Columns and labels:
Type in all cases: cell-based
H1299_WT cells [1] = test: Release of NG-delivered labeled oligonucleotides into the cytosol (positive nuclei); conditions: 40 μM, 20 h, after NG transfection; listed as DL
Procedure: To visualize the FITC-dextran release, a 1 mg/mL dispersion of 10 kDa FITC-dextrans (Sigma-Aldrich, Belgium) in complete cell medium was added during 1 hour at 37° C. in a humidified atmosphere containing 5% CO2. To assess oligonucleotide escape, the NGs were first loaded with 100 nM Alexa Fluor 647-labeled oligonucleotides (21-mer) (Eurogentec, Belgium) according to the procedure described for siRNA complexation. Of note, these oligonucleotides transfer to the nucleus upon release into the cytosol (Rehman et al., ACS Nano, 2013). Following four hours of NG transfection or 1 h incubation with FITC-dextrans, the cells were washed with PBS and received 1.5 mL fresh cell medium with or without 10, 20 or 40 μM DL. After an additional incubation period of 20 hours, the cell medium was removed and nuclei were labeled with Hoechst (Molecular Probes™, Belgium) in cell medium during 15 minutes at 37° C. […]
The samples were imaged using a laser scanning confocal microscope (LSCM, C1si, Nikon) and a 60× oil immersion Plan Apo objective (Nikon, Belgium). […] During data analysis with the ImageJ image processing software (NIH) both the total cell number and amount of cells with a diffuse FITC-dextran labeling or oligonucleotide-positive nuclei were counted. […]

H1299_eGFP cells = test: Transfection with Lipofectamine RNAiMAX or DOTAP-DOPE liposomes, with or without desloratadine, eGFP silencing; conditions: 40 μM, 2 h
Procedure: Lipofectamine® RNAiMAX (Invitrogen, Belgium) was applied as prescribed by the manufacturer. In short, equal volumes of RNAiMAX and siRNA dilutions were mixed and allowed to complex during 5 minutes at room temperature. Transfection occurred in Opti-MEM®. According to the guidelines, 5 pmol siRNA/well was applied to obtain optimal transfection efficiencies. To allow comparison with the siNG transfection methods, the RNAiMAX lipoplexes were additionally further diluted to 0.6 pmol siRNA/well. […] Of note, a single biological replicate was performed with three technical replicates and data are represented as the mean±SEM.
DOTAP (2,3-dioleoyloxy-propyl)-trimethylammonium)—DOPE (1,2-dioleoyl-sn-glycero-3-phosphoethanolamine) liposomes (LPS) were prepared via the lipid film hydration method. […]
For silencing experiments, H1299_eGFP cells were seeded in 24 well plates at a density of 35000 cells/well and were allowed to settle overnight. […] SiNG-mediated eGFP silencing was determined by flow cytometry. […] For each sample the forward and side scatter as well as the green fluorescent signal were measured for at least 5000 cells. The samples were excited with the 488 nm laser line and the signal was detected with the 530/30 filter using the FACSCalibur™ flow cytometer (BD Biosciences, Belgium) and BD CellQuest™ acquisition software.

H1299_WT cells [2] = test: Sphingomyelin detection with lysenin; conditions: after siNG transfection
Procedure: Cell seeding, transfection and DL treatment of the H1299_WT cells occurred similar to the previous microscopy experiments. The subsequent staining procedure was carried out at room temperature. Following one washing step with PBS, the cells were fixed with 4% PFA during 15 minutes. The fixative was removed, the cells washed twice with PBS and permeabilized with 0.5% Tween 20 for 15 minutes. Next, the cells were washed twice with blocking buffer (BB, 2 wt % bovine serum albumin (Amresco, USA) in PBS) and kept in BB during 30 minutes. Upon removal, the cells were incubated 2 hours with a 1 μg/mL lysenin (Sigma-Aldrich, Belgium) solution in BB. Next the cells were washed twice with PBS before incubating 1 hour with the lysenin rabbit anti-human antiserum (1:500 in BB, Peptanova, Germany). Before and after the subsequent 1 hour incubation period with the secondary goat anti-rabbit Alexa Fluor 647 antibody (1:500 in BB, Molecular Probes™, Belgium), cells were washed with BB. Finally the cells were washed with PBS and stored at 4° C. covered with Vectashield containing DAPI. Using the 408 nm and 633 nm laser lines, the nuclei and sphingomyelin were excited respectively and detected with a LSCM and a 60× oil immersion objective.

Clc1ccc2c(c1)CCc1cccnc1C2=C1CCNCC1 [(3) Desloratadine, Desloratadine]
Oligonucleotide positive nuclei (H1299_WT cells [1]): 30% | cytosolic siRNA delivery via cationic liposomes (H1299_eGFP cells): not able to enhance cytosolic siRNA delivery | sphingomyelin (lysenin) signal (H1299_WT cells [2]): signal increases as a function of the desloratadine concentration
